Experimental data: patent publication US12466820B2, “Amino quinazoline derivatives as P2X3 inhibitors” (CHIESI FARMACEUTICI S.p.A., priority 2019, dated 2025)
pIC50: −log10 of the molar value.

Assays:
h P2X3 = target: T1, h P2X3 (Homo sapiens, UniProt P56373); assay: In vitro electrophysiology assay for P2X3 (automated whole-cell patch clamp, Sophion Qube); type: cell-based; conditions: range of activity
T1 sequence (P56373 1-397): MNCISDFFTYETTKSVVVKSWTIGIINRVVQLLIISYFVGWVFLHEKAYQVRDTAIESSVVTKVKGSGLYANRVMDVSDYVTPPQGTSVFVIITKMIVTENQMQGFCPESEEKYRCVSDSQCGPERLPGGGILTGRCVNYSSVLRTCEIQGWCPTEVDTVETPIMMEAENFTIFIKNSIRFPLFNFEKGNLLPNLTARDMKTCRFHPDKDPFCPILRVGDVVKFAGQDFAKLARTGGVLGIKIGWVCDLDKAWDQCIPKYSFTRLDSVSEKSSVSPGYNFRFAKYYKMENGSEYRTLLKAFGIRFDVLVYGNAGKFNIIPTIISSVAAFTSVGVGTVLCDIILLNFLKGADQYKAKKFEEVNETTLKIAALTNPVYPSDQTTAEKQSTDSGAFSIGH
In short: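 Whole-cell automated patch clamp at room temperature, cells held at −60 mV; after two 800 nM α,β-MeATP baseline responses, antagonist preincubated 10 min then co-applied with 800 nM α,β-MeATP. Inhibition of peak current vs second agonist response; IC50 from 10-concentration curves, one concentration per cell.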

h P2X2/3 = target: T2, h P2X2/3 (Homo sapiens, UniProt P56373+Q9UBL9); assay: In vitro electrophysiology assay for P2X2/3 (same protocol, 10 μM ATP as agonist); type: cell-based; conditions: Table 7, range of activity
T2 sequence (P56373 1-397): T1 sequence (P56373 1-397)
T2 sequence (Q9UBL9 1-471): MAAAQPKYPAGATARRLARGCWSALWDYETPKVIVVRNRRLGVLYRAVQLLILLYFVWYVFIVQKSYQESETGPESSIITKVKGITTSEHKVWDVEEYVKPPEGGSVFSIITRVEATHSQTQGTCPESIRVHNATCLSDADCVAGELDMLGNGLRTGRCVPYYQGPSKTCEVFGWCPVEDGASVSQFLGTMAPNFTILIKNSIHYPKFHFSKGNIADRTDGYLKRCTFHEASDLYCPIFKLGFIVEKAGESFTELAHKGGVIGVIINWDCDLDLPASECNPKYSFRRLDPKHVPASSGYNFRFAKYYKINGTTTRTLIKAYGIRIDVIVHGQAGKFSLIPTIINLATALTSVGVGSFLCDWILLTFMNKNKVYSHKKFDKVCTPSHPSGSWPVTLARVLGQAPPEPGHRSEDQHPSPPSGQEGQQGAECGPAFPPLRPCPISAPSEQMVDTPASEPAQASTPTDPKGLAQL
Method: Cells expressing P2X3 receptors were grown according to standard practice and maintained at 37° C. in a 5% humidified CO2 atmosphere. The cells were seeded into T175 flask 2 days prior to the day of the assay and dissociated from the flasks using TrypLE when grown to confluence of 80-90%. The dissociated cells were resuspended in serum free media at a cell density of 3×10^6 cells/ml and loaded onto the Sophion Qube automated patch-clamp system. The extracellular assay buffer contained 145 mM NaCl, 4 mM KCl, 2 mM CaCl2), 1 mM MgCl2, 10 mM HEPES, and 10 mM glucose at pH 7.4. The intracellular assay solution contained 140 mM CsF, 10 mM NaCl, 10 mM EGTA, 10 mM HEPES at pH 7.2. Agonist stock solutions were prepared in H2O and diluted in bath solution prior to use. All antagonists were prepared as 10 mM stock solutions in DMSO and diluted in bath solution prior to use. All experiments were performed under the whole-cell patch clamp configuration at room temperature with 384 individual cells being voltage clamped at −60 mV simultaneously on the Sophion Qube instrument. Two baseline responses were established with the application of α,β-MeATP (800 nM), with the subsequent agonist applications being washed out using extracellular assay buffer containing 0.5 U/ml apyrase. Following the second agonist application, antagonist was incubated in the absence of α,β-MeATP for 10 minutes. After antagonist preincubation, 800 nM α,β-MeATP and antagonist were co-administered to determine the inhibitory effect of the antagonist. One concentration of an antagonist was assessed against a single cell, with different concentrations of the antagonist applied to other cells on the 384 recording substrate. The control P2X3 current amplitude was taken from the peak current amplitude from the second agonist response prior to preincubation with antagonist. The peak P2X3 current amplitude in the presence of antagonist was used to calculate the inhibitory effect at each concentration of the antagonist according to the following equation: […]
Concentration-response curves were constructed from ten different concentrations with each concentration of antagonist tested on at least two individual cells. The concentration of the antagonist to inhibit P2X3 current by 50% (IC50) was determined by fitting the data with the following equation: […]
Where ‘a’ is minimum response, ‘b’ is maximum response, ‘c’ is IC50 and ‘d’ is Hill slope.
Representative compound of the present invention have been also tested for P2X2/3 receptor.
The same assay protocol was used for the P2X2/3 assay as the P2X3 assay with two modifications: 1) 10 μM ATP was used as the agonist; and 2) the mean current amplitude was measured seven seconds after the application of agonist.

[1] = Table 6, inhibition of P2X3 current, agonist α,β-MeATP (800 nM)

pIC50 (h P2X3; [1])	pIC50 (h P2X3; Table 7)	pIC50 (h P2X2/3)	h P2X2/3 (h P2X2/3)	SMILES
> 6.50	> 6.50	4.50 to 5.50	–	COc1cc(-c2ccc(F)cn2)cc2c(NC(C)c3nc(C)no3)ncnc12 (single isomer, unassigned) [Example 176, 6-(5-fluoropyridin-2-yl)-8-methoxy-N-(1-(3-methyl-1,2,4-oxadiazol-5-yl)ethyl)quinazolin-4-amine]
> 6.50	> 6.50	4.50 to 5.50	–	COc1cc(-c2ncc(C)cn2)cc2c(NCc3nnc(C)s3)ncnc12 [Example 153, 8-methoxy-N-((5-methyl-1,3,4-thiadiazol-2-yl)methyl)-6-(5-methylpyrimidin-2-yl)quinazolin-4-amine]
> 6.50	> 6.50	4.50 to 5.50	–	COc1cc(-c2ncc(C)cc2F)cc2c(N[C@H](C)c3noc(C)n3)ncnc12 [Example 157, 6-(3-fluoro-5-methyl-2-pyridyl)-8-methoxy-N-[(1R)-1-(5-methyl-1,2,4-oxadiazol-3-yl)ethyl]quinazolin-4-amine]
> 6.50	> 6.50	5.50 to 6.50	–	COc1cc(-c2ncc(C)cn2)cc2c(NCc3ccn(C)c(=O)c3)ncnc12 [Example 151, 4-(((8-methoxy-6-(5-methylpyrimidin-2-yl)quinazolin-4-yl)amino)methyl)-1-methylpyridin-2(1H)-one]
> 6.50	> 6.50	–	+ (+: 5.5<pIC50 h P2X3 or h P2X2/3>4.5)	COc1cc(-c2ccc(F)cn2)cc2c(NC(C)c3nnc(C)s3)ncnc12 (single isomer, unassigned) [Example 174, 6-(5-fluoropyridin-2-yl)-8-methoxy-N-(1-(5-methyl-1,3,4-thiadiazol-2-yl)ethyl)quinazolin-4-amine]
> 6.50	> 6.50	4.50 to 5.50	–	COc1cc(-c2ccc(F)cn2)cc2c(NCc3ccc(C(F)(F)F)nc3)ncnc12 [Example 150, 6-(5-fluoropyridin-2-yl)-8-methoxy-N-((6-(trifluoromethyl)pyridin-3-yl)methyl)quinazolin-4-amineamine]
> 6.50	> 6.50	4.50 to 5.50	–	COc1cc(-c2ncc(C)cn2)cc2c(NCc3nc(C(F)(F)F)no3)ncnc12 [Example 144, 8-methoxy-6-(5-methylpyrimidin-2-yl)-N-[[3-(trifluoromethyl)-1,2,4-oxadiazol-5-yl]methyl]quinazolin-4-amine]
> 6.50	> 6.50	4.50 to 5.50	–	COc1cc(-c2ncc(C)cn2)cc2c(NCc3cccc(=O)[nH]3)ncnc12 [Example 152, 6-(((8-methoxy-6-(5-methylpyrimidin-2-yl)quinazolin-4-yl)amino)methyl)pyridin-2(1H)-one]
> 6.50	> 6.50	5.50 to 6.50	–	COc1cc(-c2ncc(C)cn2)cc2c(NCc3ccc(C(F)(F)F)nc3)ncnc12 [Example 155]
> 6.50	> 6.50	4.50 to 5.50	–	COc1cc(-c2ccc(C)cn2)cc2c(NCc3nnc(C)o3)ncnc12 [Example 143, 8-methoxy-N-[(5-methyl-1,3,4-oxadiazol-2-yl)methyl]-6-(5-methyl-2-pyridyl)quinazolin-4-amine]
> 6.50	> 6.50	5.50 to 6.50	–	COc1cc(-c2ncc(C)cn2)cc2c(NCc3cnc(C(F)(F)F)nc3)ncnc12 [Example 145, 8-methoxy-6-(5-methylpyrimidin-2-yl)-N-[[2-(trifluoromethyl)pyrimidin-5-yl]methyl]quinazolin-4-amine]

More lines, now with the values behind:

SMILES	pIC50 (h P2X3; [1])	pIC50 (h P2X3; Table 7)	pIC50 (h P2X2/3)	h P2X2/3 (h P2X2/3)
COc1cc(-c2ncc(F)cn2)cc2c(NC(C)c3noc(C)n3)ncnc12 (stereo not drawn) [Example 108, 6-(5-fluoropyrimidin-2-yl)-8-methoxy-N-(1-(5-methyl-1,2,4-oxadiazol-3-yl)ethyl)quinazolin-4-amine]	5.50 to 6.50	5.50 to 6.50	4.50 to 5.50	–
COc1cc(-c2ccc(C)cn2)cc2c(NCc3cc(C)no3)ncnc12 [Example 137, 8-methoxy-N-((3-methylisoxazol-5-yl)methyl)-6-(5-methylpyridin-2-yl)quinazolin-4-amine]	> 6.50	> 6.50	4.50 to 5.50	–
COc1cc(-c2ncc(C)cn2)cc2c(NC(C)c3ccc(C(F)(F)F)nn3)ncnc12 (single isomer, unassigned) [Example 121, 8-methoxy-6-(5-methylpyrimidin-2-yl)-N-[1-[6-(trifluoromethyl)pyridazin-3-yl]ethyl]quinazolin-4-amine]	5.50 to 6.50	> 6.50	5.50 to 6.50	–
COc1cc(-c2ccc(F)cn2)cc2c(NCc3ccc(C)nc3)ncnc12 [Example 149, 6-(5-fluoropyridin-2-yl)-8-methoxy-N-((6-methylpyridin-3-yl)methyl)quinazolin-4-amine]	> 6.50	> 6.50	4.50 to 5.50	–
COc1cc(-c2ncc(C)s2)cc2c(NCc3ccc(Cl)cn3)ncnc12 [Example 117, N-((5-chloropyridin-2-yl)methyl)-8-methoxy-6-(5-methylthiazol-2-yl)quinazolin-4-amine]	> 6.50	> 6.50	5.50 to 6.50	–
COc1cc(-c2ncc(C)s2)cc2c(NC(C)c3noc(C)n3)ncnc12 (stereo not drawn) [Example 107, 8-methoxy-N-(1-(5-methyl-1,2,4-oxadiazol-3-yl)ethyl)-6-(5-methylthiazol-2-yl)quinazolin-4-amine]	> 6.50	> 6.50	5.50 to 6.50	–
Cc1ccc(CNc2ncnc3c(OC4CCOCC4)cc(-c4ccc(F)cn4)cc23)nn1 [Example 30, 6-(5-fluoro-2-pyridyl)-N-[(6-methylpyridazin-3-yl)methyl]-8-tetrahydropyran-4-yloxy-quinazolin-4-amine]	5.50 to 6.50	5.50 to 6.50	4.50 to 5.50	–
C[C@@H](Nc1ncnc2c(-c3ccnnc3)cc(-c3ccc(F)cc3)cc12)c1cnc(C(F)(F)F)nc1 [Example 24, (R)-6-(4-fluorophenyl)-8-(pyridazin-4-yl)-N-(1-(2-(trifluoromethyl)pyrimidin-5-yl)ethyl)quinazolin-4-amine]	> 6.50	> 6.50	4.50 to 5.50	–
COc1cc(-c2ccc(C)cn2)cc2c(NCc3noc(C)n3)ncnc12 [Example 136, 8-methoxy-N-((5-methyl-1,2,4-oxadiazol-3-yl)methyl)-6-(5-methylpyridin-2-yl)quinazolin-4-amine]	5.50 to 6.50	5.50 to 6.50	4.50 to 5.50	–
COc1cc(-c2ncc(C)s2)cc2c(NCc3ccc(C(F)(F)F)cn3)ncnc12 [Example 116, 8-methoxy-6-(5-methylthiazol-2-yl)-N-((5-(trifluoromethyl)pyridin-2-yl)methyl)quinazolin-4-amine]	> 6.50	> 6.50	5.50 to 6.50	–
